Test results reported in the NIST ThermoML archive (doi:10.1021/je5004719).
Numbers after ± are expanded uncertainties.

Test: xn = mol fraction of the nth substance listed
Conditions: 101 kPa, Liquid; for speed of sound: Sing-around technique in a fixed-path interferometer; for mass density: Vibrating tube method

Cc1ccccc1Cl [2-chlorotoluene] + Cc1ccccc1C
Conditions | mass density, 298.15 K [kg/m3] | mass density, 303.15 K [kg/m3] | mass density, 308.15 K [kg/m3] | speed of sound, 298.15 K [m/s] | speed of sound, 303.15 K [m/s] | speed of sound, 308.15 K [m/s]
x1 = 0.0872 | 893.06 ± 1 | 888.78 ± 1 | 884.5 ± 1 | 1341.6 ± 0.8 | 1321.9 ± 0.8 | 1302.1 ± 0.7
x1 = 0.1276 | 901.04 ± 1 | 896.73 ± 1 | 892.42 ± 1 | 1339.4 ± 0.8 | 1319.8 ± 0.8 | 1300.2 ± 0.8
x1 = 0.1754 | 910.51 ± 1 | 906.16 ± 1 | 901.82 ± 1 | 1337 ± 0.8 | 1317.4 ± 0.8 | 1298 ± 0.8
x1 = 0.2243 | 920.22 ± 1 | 915.84 ± 1 | 911.46 ± 1 | 1334.4 ± 0.8 | 1315 ± 0.8 | 1295.6 ± 0.8
x1 = 0.2765 | 930.61 ± 1 | 926.19 ± 1 | 921.78 ± 1 | 1331.8 ± 0.8 | 1312.4 ± 0.8 | 1293.1 ± 0.8
x1 = 0.3241 | 940.11 ± 1 | 935.66 ± 1 | 931.22 ± 1 | 1329.4 ± 0.8 | 1310.1 ± 0.8 | 1290.8 ± 0.8
x1 = 0.3762 | 950.54 ± 1 | 946.05 ± 1 | 941.57 ± 1 | 1326.8 ± 0.8 | 1307.6 ± 0.8 | 1288.4 ± 0.8
x1 = 0.4216 | 959.64 ± 1 | 955.13 ± 1 | 950.62 ± 1 | 1324.6 ± 0.8 | 1305.4 ± 0.8 | 1286.3 ± 0.8
x1 = 0.4932 | 974.04 ± 1 | 969.48 ± 1 | 964.92 ± 1 | 1321.2 ± 0.8 | 1302.1 ± 0.8 | 1283.1 ± 0.8
x1 = 0.5243 | 980.31 ± 1 | 975.73 ± 1 | 971.15 ± 1 | 1319.7 ± 0.8 | 1300.7 ± 0.8 | 1281.8 ± 0.8
x1 = 0.5721 | 989.96 ± 1 | 985.35 ± 1 | 980.74 ± 1 | 1317.5 ± 0.9 | 1298.6 ± 0.8 | 1279.8 ± 0.8
x1 = 0.6158 | 998.81 ± 1 | 994.17 ± 1 | 989.52 ± 1 | 1315.5 ± 0.9 | 1296.7 ± 0.9 | 1278 ± 0.9
x1 = 0.6761 | 1011 ± 1 | 1006.4 ± 1 | 1001.7 ± 1 | 1312.7 ± 0.9 | 1294.1 ± 0.9 | 1275.6 ± 0.9
x1 = 0.7245 | 1020.9 ± 1 | 1016.2 ± 1 | 1011.4 ± 1 | 1310.6 ± 0.9 | 1292.1 ± 0.9 | 1273.7 ± 0.9
x1 = 0.7865 | 1033.5 ± 1 | 1028.8 ± 1 | 1024 ± 1 | 1307.8 ± 0.9 | 1289.6 ± 0.9 | 1271.3 ± 0.9
x1 = 0.8254 | 1041.5 ± 1 | 1036.7 ± 1 | 1031.9 ± 1 | 1306.1 ± 0.9 | 1288 ± 0.9 | 1269.8 ± 0.9
x1 = 0.8795 | 1052.5 ± 1 | 1047.7 ± 1 | 1042.9 ± 1 | 1303.8 ± 0.9 | 1285.8 ± 0.9 | 1267.7 ± 0.9
x1 = 0.9192 | 1060.7 ± 1 | 1055.9 ± 1 | 1051 ± 1 | 1302.1 ± 0.9 | 1284.1 ± 0.9 | 1266.1 ± 0.9
